Data published in patent EP0703222A1, “3-AMINOAZEPINE COMPOUND AND PHARMACEUTICAL USE THEREOF” (YOSHITOMI PHARMACEUTICAL INDUSTRIES, LTD., priority 1993, dated 1994).

Experiments:
[1] = target: T1, CCK-A receptor (Rattus norvegicus, UniProt P30551); experiment: CCK-A receptor binding test (pancreas); details: for Ki: rat pancreas membranes, 125I-CCK-8, 20°C, 30 minutes, read-out: binding affinity (Ki,nM) CCK-A; for affinity for CCK-A receptor (in words): summary of the binding results in the text
T1 construct: The whole pancreas was removed from a male rat; from tissue; host or cells: rat pancreas membrane homogenate
T1 sequence (P30551 1-444): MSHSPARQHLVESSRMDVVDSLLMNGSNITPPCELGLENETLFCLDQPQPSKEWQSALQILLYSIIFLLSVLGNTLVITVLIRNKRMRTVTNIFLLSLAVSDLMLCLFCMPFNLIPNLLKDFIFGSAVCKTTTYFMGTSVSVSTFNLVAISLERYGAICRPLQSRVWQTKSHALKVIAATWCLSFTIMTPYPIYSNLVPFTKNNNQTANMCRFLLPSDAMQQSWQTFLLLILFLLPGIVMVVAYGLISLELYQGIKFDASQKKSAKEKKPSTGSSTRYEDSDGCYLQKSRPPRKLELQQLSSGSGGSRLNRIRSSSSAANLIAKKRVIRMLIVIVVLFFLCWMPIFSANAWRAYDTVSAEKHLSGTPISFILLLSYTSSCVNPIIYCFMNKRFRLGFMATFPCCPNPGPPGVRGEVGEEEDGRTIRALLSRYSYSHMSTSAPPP
Experimental: Experimental Example 1 : CCK-A receptor binding test (pancreas)
The whole pancreas was removed from a male rat. The fat tissues were removed and the pancreas was homogenized (Brinkman Polytron PT20) in 50 mM Tris hydrochloric acid (pH 7.5). The homogenate was filtered through a nylon cloth (120 mesh) and centrifuged at 50,000 × g for 12 minutes. The obtained sediment was homogenized in Tris buffer as in the above and centrifuged. The sediment was suspended in a buffer for binding assay [50 mM Tris-HCl (pH 7.2) containing 5 mM magnesium chloride, 5 mM dithiothreitol, 2 mg/ml bovine serum albumin, 0.1 mg/ml bacitracin and 0.14 mg/ml trypsin inhibitor (soybean)] and used as a receptor source.
(§1) For binding assay, 50 µl of a buffer (for total binding), unlabeled CCK-8 sulfate (for nonspecific binding) having a final concentration of 1 5M or a test compound (for determining inhibition of ¹²⁵I-CCK binding) and 50 µl of ¹²⁵I-CCK-8 (63-67 TBq/mmol, 40,000-50,000 cpm) were added to a membrane suspension (450 µl, containing 100 µg protein). The reaction mixture was incubated at 20°C for 30 minutes, filtered by suction through a glass fiber filter (Whatman GF/B), and immediately thereafter washed 3 times with ice-cooled Tris buffer (2.5 ml). The radioactive concentration on the filter was measured.
(§2) Inhibition (%) = 100 -((binding when compound added - nonspecific binding))/((total binding - nonspecific binding))× 100 [formula]

[2] = target: T2, CCK-B receptor (Rattus norvegicus, UniProt P30553); experiment: CCK-B receptor binding test (brain); details: for Ki: rat cerebral cortex membranes, 125I-CCK-8, 20°C, 30 minutes, read-out: binding affinity (Ki,nM) CCK-B; for selectivity (A/B): ratio CCK-A / CCK-B binding affinity
T2 construct: cerebral cortex from rat was prepared and suspended in a buffer; from tissue; host or cells: rat cerebral cortex membrane suspension
T2 sequence (P30553 1-452): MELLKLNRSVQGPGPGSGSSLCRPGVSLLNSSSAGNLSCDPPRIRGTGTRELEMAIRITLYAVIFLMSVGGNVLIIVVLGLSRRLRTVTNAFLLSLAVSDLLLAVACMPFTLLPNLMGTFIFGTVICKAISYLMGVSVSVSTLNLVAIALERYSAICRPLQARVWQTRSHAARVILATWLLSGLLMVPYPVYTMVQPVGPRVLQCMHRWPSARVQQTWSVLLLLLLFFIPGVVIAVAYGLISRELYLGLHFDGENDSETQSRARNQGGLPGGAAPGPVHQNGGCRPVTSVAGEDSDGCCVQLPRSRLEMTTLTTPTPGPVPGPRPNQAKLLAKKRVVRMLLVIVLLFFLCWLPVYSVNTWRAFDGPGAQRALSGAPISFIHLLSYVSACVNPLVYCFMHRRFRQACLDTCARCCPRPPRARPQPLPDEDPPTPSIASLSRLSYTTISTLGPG
Experimental: Experimental Example 2 : CCK-B receptor binding test (brain)
as §1, with “In the case of the central nervous system, cerebral cortex from rat was prepared and suspended in a buffer, pH 6.5, containing 5 mM magnesium chloride, 1 mM EGTA [ethylene glycol bis(2-aminoethylether)tetraacetic acid], 360 mM sodium chloride, 15 mM potassium chloride, 20 mM HEPES (N-2-hydroxyethylpiperazine-N'-2-ethanesulfonic acid) and 0.25 mg/ml bacitracin. For” for “For”, “µM” for “5M”, “40,000 - 50,000” for “40,000-50,000”
as §2

`CCOC(=O)CN1C(=O)C(NC(=O)Nc2cccc(OC)c2)C=C(c2ccccc2)c2ccccc21` (single isomer, unassigned; (-)) [Example 52, (-)-1-(1-ethoxycarbonylmethyl-2-oxo-5-phenyl-2,3-dihydro-1H-1-benzazepin-3-yl)-3-(3-methoxyphenyl)urea] was tested, and the Ki [1] was 110 nM, the Ki [2] was 0.92 nM and the “selectivity (A/B)” value [2] was 120.
In the case of `Cc1ccc(NC(=O)NC2C=C(c3ccccc3)c3ccccc3N(CC(=O)c3ccccc3C)C2=O)cc1` (single isomer, unassigned; (-)) [Example 64, (-)-1-(1-(2'-methylphenacyl)-2-oxo-5-phenyl-2,3-dihydro-1H-1-benzazepin-3-yl)-3-(4-methylphenyl)urea], the Ki [1] is reported as 200 nM, the Ki [2] is reported as 1.1 nM and the “selectivity (A/B)” value [2] is reported as 180.
With `Cc1ccccc1NC(=O)NC1C=C(c2ccccc2)c2ccccc2N(CC(=O)c2ccccc2C)C1=O` (single isomer, unassigned; (-)) [Example 66, (-)-1-(1-(2'-methylphenacyl)-2-oxo-5-phenyl-2,3-dihydro-1H-1-benzazepin-3-yl)-3-(2-methylphenyl)urea] the Ki [1] was 310 nM, the Ki [2] was 2.5 nM and the “selectivity (A/B)” value [2] was 124.
For `CCOC(=O)CN1C(=O)C(NC(=O)Nc2cccc(C)c2)C=C(c2ccccc2)c2ccccc21` (single isomer, unassigned; (-)) [Example 46, (-)-1-(1-ethoxycarbonylmethyl-2-oxo-5-phenyl-2,3-dihydro-1H-1-benzazepin-3-yl)-3-(3-methylphenyl)urea], the Ki [1] was 100 nM, the Ki [2] was 0.87 nM and the “selectivity (A/B)” value [2] was 110.
With `Cc1cccc(NC(=O)N[C@@H]2N=C(c3ccccc3)c3ccccc3N(C)C2=O)c1` [Example L-365260, (R)-N-(2,3-dihydro-1-methyl-2-oxo-5-phenyl-1H-1,4-benzodiazepin-3-yl)-N'-(3-methylphenyl)urea, reference compound] the Ki [1] was 390 nM, the Ki [2] was 19 nM and the “selectivity (A/B)” value [2] was 21.
For `COc1ccc(NC(=O)NC2C=C(c3ccccc3)c3ccccc3N(CC(=O)c3ccccc3C)C2=O)cc1` (single isomer, unassigned; (-)) [Example 68, (-)-1-(4-methoxyphenyl)-3-(1-(2'-methylphenacyl)-2-oxo-5-phenyl-2,3-dihydro-1H-1-benzazepin-3-yl)urea], the Ki [1] was 150 nM, the Ki [2] was 1.1 nM and the “selectivity (A/B)” value [2] was 140.
For `CCOC(=O)CN1C(=O)C(NC(=O)Nc2ccc(C)cc2)C=C(c2ccccc2)c2ccccc21` (single isomer, unassigned; (-)) [Example 48, (-)-1-(1-ethoxycarbonylmethyl-2-oxo-5-phenyl-2,3-dihydro-1H-1-benzazepin-3-yl)-3-(4-methylphenyl)urea], the Ki [1] was 210 nM, the Ki [2] was 2.1 nM and the “selectivity (A/B)” value [2] was 100.
With `Cc1ccccc1C(=O)CN1C(=O)C(NC(=O)Nc2ccccc2Cl)C=C(c2ccccc2)c2ccccc21` (single isomer, unassigned; (-)) [Example 74, (-)-1-(2-chlorophenyl)-3-(1-(2'-methylphenacyl)-2-oxo-5-phenyl-2,3-dihydro-1H-1-benzazepin-3-yl)urea] the Ki [1] was 290 nM, the Ki [2] was 2.4 nM and the “selectivity (A/B)” value [2] was 120.
For `CN1C(=O)C(NC(=O)c2cc3ccccc3[nH]2)C=C(c2ccccc2)c2ccccc21` (single isomer, unassigned; (+)) [Example 36, (+)-N-(1-methyl-2-oxo-5-phenyl-2,3-dihydro-1H-1-benzazepin-3-yl)-2-indolecarboxamide], the Ki [1] was 4.7 nM, the “affinity for CCK-A receptor (in words)” value [1] was “strong, selective affinity for CCK-A receptor” and the Ki [2] was greater than 1000 nM. The “selectivity (A/B)” value [2] was less than 0.0047.
In the case of `Cc1ccccc1C(=O)CN1C(=O)C(NC(=O)c2cc3ccccc3[nH]2)C=C(c2ccccc2)c2ccccc21` (single isomer, unassigned; (+)) [Example 81, (+)-N-(1-(2'-methylphenacyl)-2-oxo-5-phenyl-2,3-dihydro-1H-1-benzazepin-3-yl)-2-indole carboxamide], the Ki [1] is reported as 42 nM, the “affinity for CCK-A receptor (in words)” value [1] is reported as “strong, selective affinity for CCK-A receptor” and the Ki [2] is reported as greater than 1000 nM. For the same compound, the “selectivity (A/B)” value [2] was less than 0.042.
